Structures are written as SMILES. Values after ≈ are worked out from the molar mass of the structure shown.

From ChEMBL document CHEMBL3351967, “2-Alkyloxazoles as potent and selective PI4KIIIβ inhibitors demonstrating inhibition of HCV replication” (Bioorg Med Chem Lett, 2014) come the findings set out here.

The subject of data set [1] is Hepatitis C virus. The data set is described as follows: Antiviral activity against Hepatitis C virus genotype 1b Con1 infected in HuH7 cells by cell based replicon assay. It is filed as functional, Hepacivirus hominis. The settings on record: genotype 1b Con1, Huh-7. (In general: A replicon is a self-replicating genome or part of one, used to study replication in cells.)

Data set [2] can be described thus: Cytotoxicity against Hepatitis C virus genotype 1b Con1 infected human HuH7 cells after 48 hrs by MTT assay. The data set is classed as cell-based, Huh-7. The settings on record: HuH7 cells infected with Hepatitis C virus genotype 1b Con1.
A short description of data set [3]: Inhibition of human recombinant Phosphatidylinositol 4-kinase type 3-beta expressed in Sf9 cells assessed as reduction in […] by pyruvate kinase and lactate dehydrogenase coupled assay.
A short description of data set [4]: Inhibition of PI3K (unknown origin). Details: species or system Homo sapiens.
Data set [5] can be described thus: Aqueous solubility at room temperature after 24 hrs by HPLC method. It is filed as physicochemical. The settings on record: aqueous medium.
Data set [6] has as its system Hepatitis C virus. The data set is described as follows: Antiviral activity against Hepatitis C virus subtype 1a infected in HuH7 cells by cell based replicon assay. It is filed as functional, Hepacivirus hominis. The settings on record: Huh-7.
The nature of data set [7]: Inhibition of human recombinant Phosphatidylinositol 4-kinase type 3-alpha expressed in Sf9 cells assessed as reduction in […] by pyruvate kinase and lactate dehydrogenase coupled assay.
Data set [8] has as its system Hepatitis C virus. The data set is described as follows: Antiviral activity against Hepatitis C virus subtype 2a JFH-1 infected in HuH7 cells by cell based replicon assay. The data set is classed as functional, Hepacivirus hominis. The following applies: genotype 2a JFH-1, Huh-7.

Usually EC50 stands for the concentration giving half of the maximal effect. A higher EC50 goes with weaker potency. For orientation: CC50 means the concentration giving 50% cytotoxicity. Low values mean greater toxicity to the cells, high ones lower toxicity to the cells. As a reminder, the IC50 is the point on the concentration scale where inhibition reaches its midpoint. On to `COc1ccc(-c2oc(C3CC3)nc2C)cc1S(N)(=O)=O`, for which, in the data set with Hepatitis C virus [1], the concentration giving a half-maximal response (EC50) was found to be 67 nM. In data set [2], this compound gave a CC50 at 48 h of over 31 µM. The IC50 in data set [3] was 64 nM.
The corresponding values for `COc1ccc(-c2oc(C3CC3)nc2C)cc1S(C)(=O)=O` are 120 nM, over 31 µM and 76 nM.
The compound `COc1ccc(-c2oc(-c3ccccc3)nc2C)cc1S(=O)(=O)N[C@H]1CC[C@H](O)CC1` yielded an EC50 in the data set with Hepatitis C virus [1] of 193 nM. In data set [2], this compound had a CC50 at 48 h of over 31 µM. Besides, the IC50 in data set [3] came out at 37 nM.
On the same counts, the results for `COc1ccc(-c2oc(C3CCC(CO)CC3)nc2C)cc1S(=O)(=O)N[C@H]1CC[C@H](O)CC1` (some centres undefined) are 32 nM, over 31 µM and 9 nM.
`COc1ccc(-c2oc(C3CC3)nc2C)cc1S(=O)(=O)NCC(C)(C)O`: the EC50 in the data set with Hepatitis C virus [1] came to 114 nM. This compound showed a CC50 at 48 h in data set [2] of over 31 µM. The IC50 in data set [3] worked out at 33 nM.
On the same counts, the results for `COc1ccc(-c2oc(C3CC3)nc2C)cc1S(=O)(=O)CC1CCC(O)CC1` (centres undefined) are 67 nM, over 31 µM and 79 nM.
On the same counts, the results for `COc1ccc(-c2oc(C)nc2C)cc1S(=O)(=O)N[C@H]1CC[C@H](O)CC1` are 3210 nM, over 31 µM and 414 nM.
The corresponding values for `COc1ccc(-c2cc(C3CC3)nn2C)cc1S(=O)(=O)N[C@H]1CC[C@H](O)CC1` are 356 nM, over 31 µM and 54 nM.
With `COc1ccc(-c2oc(C3CC3)nc2C)cc1C(=O)N[C@H]1CC[C@H](O)CC1`, the midpoint of the response with Hepatitis C virus [1], the EC50, lay at 3560 nM. Moreover, the CC50 at 48 h in data set [2] is over 31 µM. The IC50 in data set [3] worked out at 9730 nM.
The corresponding values for `COc1ccc(-c2oc(C3CC3)nc2C)cc1S(=O)(=O)Nc1cccc(C#N)c1` are under 30 nM, over 31 µM and 11 nM.
For orientation: solubility means the concentration that dissolves in the medium under given conditions. High values mean much dissolved substance, low ones little dissolved substance. For the compound `Cc1ccc(-c2cnc(C3CC3)o2)cc1S(=O)(=O)N[C@H]1CC[C@H](O)CC1`, the IC50 was over 9.1 µM in data set [4] and 49 nM in data set [3]. Besides, the figures for the EC50 with Hepatitis C virus [1] and in the data set with Hepatitis C virus [6] were 99 nM and 166 nM, respectively. Further, the CC50 at 48 h in data set [2] is over 31 µM. Also, the solubility at 24 h in data set [5] was determined as 220 µM (≈ 82.8 µg/mL).
Turning to `Cc1cc(-c2cnc(C3CC3)o2)cc(S(=O)(=O)N[C@H]2CC[C@H](O)CC2)c1C`, the EC50 was found to be 6730 nM in the data set on Hepatitis C virus [1] and 2100 nM in the data set on Hepatitis C virus [6]. In addition, the CC50 at 48 h in data set [2] was over 31 µM. The IC50 in data set [3] was over 2500 nM.
For the compound `COc1ccc(-c2oc(C3CCOCC3)nc2C)cc1S(=O)(=O)N[C@H]1CC[C@H](O)CC1`, in the data set on Hepatitis C virus [1], a half-maximal response (EC50) required 402 nM. The same compound displayed a CC50 at 48 h in data set [2] of over 31 µM. Besides, the IC50 in data set [3] amounted to 36 nM.
Turning to `COc1ccc(-c2oc(C3CC3)nc2C)cc1`, the EC50 in the data set with Hepatitis C virus [1] is over 30000 nM. For the same compound, the cytotoxic concentration (CC50) at 48 h in data set [2] was over 31 µM. Moreover, in data set [3], the IC50 is over 2500 nM.
The corresponding values for `COc1ccc(-c2oc(-c3ccncc3)nc2C)cc1S(=O)(=O)N[C@H]1CC[C@H](O)CC1` are 410 nM, over 31 µM and 191 nM.
For `COc1ccc(-c2oc(C3CC3)nc2C)cc1S(=O)(=O)N[C@H]1CC[C@H](O)CC1`, the figures for the IC50 in data set [4], in data set [7] and in data set [3] were 8.2 µM, over 10 µM and 19 nM, respectively. Moreover, the EC50 in the data set on Hepatitis C virus [1] was 34 nM; in the data set with Hepatitis C virus [8], 324 nM; in the data set on Hepatitis C virus [6] it was 66 nM. This compound came in with a CC50 at 48 h in data set [2] of over 31 µM.
In the case of `COc1ccc(-c2cnc(C3CC3)o2)cc1S(=O)(=O)N[C@H]1CC[C@H](O)CC1`, the half-maximal effective concentration (EC50) with Hepatitis C virus [1] was determined as 193 nM. Also, the CC50 at 48 h in data set [2] was over 31 µM. In addition, in data set [3], the half-inhibitory concentration (IC50) is 37 nM.
`COc1ccc(-c2oc(Cc3ccccc3)nc2C)cc1S(=O)(=O)N[C@H]1CC[C@H](O)CC1`: the EC50 in the data set with Hepatitis C virus [1] is 41 nM; in the data set with Hepatitis C virus [8], 383 nM; in the data set on Hepatitis C virus [6], 53 nM. The CC50 at 48 h in data set [2] is over 31 µM. The IC50 in data set [3] is 4 nM.
Compound `COc1ccc(-c2oc(C3CCCC3)nc2C)cc1S(=O)(=O)N[C@H]1CC[C@H](O)CC1` displayed an EC50 in the data set on Hepatitis C virus [1] of 30 nM. In data set [2], this compound yielded a CC50 at 48 h of over 31 µM. In data set [3], the 50% inhibitory concentration (IC50) is 9 nM.
In the case of `COc1ccc(-c2[nH]c(C3CC3)nc2C)cc1S(=O)(=O)N[C@H]1CC[C@H](O)CC1`, in the data set on Hepatitis C virus [1], the EC50 was determined as 9950 nM. In data set [2], this compound had a CC50 at 48 h of over 31 µM. In data set [3], the 50% inhibitory concentration (IC50) was 1040 nM.
As for `COc1ccc(-c2ocnc2C)cc1S(=O)(=O)N[C@H]1CC[C@H](O)CC1`, the EC50 with Hepatitis C virus [1] was over 10000 nM. This compound also gave a CC50 at 48 h in data set [2] of over 31 µM. Moreover, the IC50 in data set [3] came out at 1610 nM.
For `COc1ccc(-c2oc(C3(C)CC3)nc2C)cc1S(=O)(=O)N[C@H]1CC[C@H](O)CC1`, the EC50 in the data set on Hepatitis C virus [1] was found to be 41 nM; with Hepatitis C virus [8] it was 147 nM; in the data set with Hepatitis C virus [6], 86 nM. This compound registered a 50% cytotoxic concentration (CC50) at 48 h in data set [2] of over 31 µM. Moreover, the IC50 in data set [3] is 28 nM.
In the case of `Cc1ccc(-c2oc(C3CC3)nc2C)cc1S(=O)(=O)N[C@H]1CC[C@H](O)CC1`, the IC50 in data set [4] is 6.29 µM; in data set [7] it was over 10 µM; in data set [3], 18 nM. Besides, the EC50 in the data set with Hepatitis C virus [1] is 46 nM; in the data set with Hepatitis C virus [8] it was 375 nM; with Hepatitis C virus [6], 59 nM. For the same compound, the half-maximal cytotoxic concentration (CC50) at 48 h in data set [2] is over 31 µM.
`COc1ccc(-c2oc(C3CC3)nc2C)cc1S(=O)(=O)NCCO`: a half-maximal response in the data set on Hepatitis C virus [1] (EC50) required 43 nM. The compound further returned a cytotoxic concentration (CC50) at 48 h in data set [2] of over 31 µM. In addition, the IC50 in data set [3] came to 27 nM.
On the same counts, the results for `COc1ccc(-c2oc(C3CCCCC3)nc2C)cc1S(=O)(=O)N[C@H]1CC[C@H](O)CC1` are 108 nM, over 31 µM and 19 nM.
In the case of `Cc1ccc(-c2cnc(C3CC3)o2)cc1S(=O)(=O)Nc1ccccc1Cl`, the values for the IC50 in data set [4], in data set [7] and in data set [3] were 2.4 µM, over 10 µM and 135 nM, respectively. Moreover, the results for the EC50 with Hepatitis C virus [1], in the data set on Hepatitis C virus [8] and in the data set with Hepatitis C virus [6] were 1020 nM, 1820 nM and 1580 nM, respectively. The same compound displayed a CC50 at 48 h in data set [2] of over 31 µM. The solubility at 24 h in data set [5] was under 2 µM.
